Test results taken from patent US10513503B2, “Use of 3-deoxyanthocyanidins for treating occular diseases” (BIOPHYTIS, priority 2015, dated 2019).

Tests used:
[1] = system: primary cultures of retinal pigment epithelium (RPE) of adult pigs; test: In vitro assay of the photoprotective activity: phototoxicity induced by A2E and blue light, cell survival; format: cell-based, pig; conditions: for viability at 20 µM / viability at 5 µM: Sus scrofa; for viability at 20 µM / viability at 5 µM / Cell survival: A2E 30 μM, blue light 470 nm 50 min, survival after 24 h, living cells vs control wells without A2E x100, A2E controls without molecule 39.7±3.7
Protocol: A cell model of phototoxicity induced by the association of a treatment by the A2E and of an illumination by blue light on primary cultures of RPE, wherein cell survival was measured, was used. This model uses primary cultures of retinal pigment epithelium of adult pigs.
This model makes it possible in particular to carry out the screening of molecules aimed at the discovery of new candidates for a treatment of the dry form of AMD. This model is closer to the “physiological” situation than the cell lines commonly used in literature, because the cells used contain protective substances provided by the diet of the animal and are therefore not in a situation of “deficiency”, and their disturbance is caused by the adding of A2E into the culture medium.
The cell cultivated in 96-well plates were treated for 48 hours with the compounds to be tested (in a 5 mM solution in the DMSO) in such a way as to obtain final concentrations of 5 or 20 μM), of which the last 19 hours in the presence of A2E (final concentration 30 μM). […] Cell survival is measured after 24 hours.
Cell survival and death are detected 24 hours after the induction of the phototoxicity by colouration of the cells with Hoechst (a nuclear marker) and with ethidium (a marker of the nuclei of dead cells). Images of each well are acquired on a fluorescent microscope equipped with a motorised stage controlled by the Metamorph software, and cell survival is quantified by a dedicated quantification program. The experiments are conducted on 96-well microplates in quadruplicate and each experiment is reproduced at least four times.
The results are expressed in the form of a ratio representing the number of living cells in the wells treated by the molecules to be tested divided by the number of living cells in the control wells (treated with the dilution medium without A2E) and multiplied by 100.

[2] = system: genetically modified mouse model (ABCA4 and Rdh8 inactivated); test: In vivo assay of the photoprotective activity in mice (blue light exposure after intravitreal injection); conditions: unilateral intravitreal injection, 100-130 μM in the vitreous, blue light 4000 lux 1 h
Description: A genetically modified mouse model developed by Maeda et al. (Invest Ophthalmol. Vis. Sci., 2009, 50, 4917-4925) was used to test the photoprotective activity of the compounds of the invention.
In this mouse model, two genes involved in the visual pigment cycle (ABCA4 and Rdh8, see FIG. 1) are inactivated, which results in an early accumulation of A2E in the eyes. This animal model is therefore representative of the human pathology.
Mice aged 7 weeks were used to carry out the unilateral intravitreal injections of solubilised diosmetinidin ([…]) in DMSO and diluted in PBS (1.2:100), in order to obtain a concentration in the vitreous of 100-130 μM. DMSO diluted in the PBS was injected into the control animals. After 24 h in the dark, the mice were subjected to an exposure to blue light (4000 lux, 1 h).

RPE cells [3] = conditions: literature, in words; cited from earlier work
RPE cells [4] = conditions: literature, in words; cited from earlier work; remark: listed apart in the source

With COc1ccc(-c2ccc3ccc(O)cc3[o+]2)cc1O [Compound 3, 3′,7-dihydroxy-4′-methoxy-flavylium chloride] the viability at 20 µM ([1]; 20 μM compound for 48 h) was 77 ± 2.7%.
Oc1ccc(-c2ccc3c(O)cc(O)cc3[o+]2)cc1 [Compound 4, 4′,5,7-trihydroxy-flavylium chloride (apigeninidin)] gave a viability at 5 µM ([1]; 5 μM compound for 48 h) of 71 ± 3.6% and a viability at 20 µM ([1]; 20 μM compound for 48 h) of 89.5 ± 3.5%.
For Oc1cc(O)c2ccc(-c3cc(O)c(O)c(O)c3)[o+]c2c1 [Compound 6, 3′,4′,5′,5,7-pentadroxy-flavylium chloride (tricetinidin)], the viability at 5 µM ([1]; 5 μM compound for 48 h) was 74.9 ± 4.2% and the viability at 20 µM ([1]; 20 μM compound for 48 h) was 99.3 ± 3.3%.
In the case of COc1ccc(-c2ccc3c(O)cc(O)cc3[o+]2)cc1O.[Cl-] [Compound 5, 3′,5,7-trihydroxy-4′-methoxy-flavylium chloride (diosmetinidin)], the viability at 5 µM ([1]; 5 μM compound for 48 h) is reported as 84.5 ± 1.4%, the viability at 20 µM ([1]; 20 μM compound for 48 h) is reported as 90.8 ± 3.6% and the “electroretinograms (wave A, wave B electrical activity)” value ([2]; 7 days later) is reported as “protective effect”. The “survival of the photoreceptors (number of layers of photoreceptors)” value ([2]; FIG. 4) was “good survival”.
In the case of COc1ccc(-c2ccc3ccc(O)cc3[o+]2)cc1OC, the viability at 20 µM ([1]; 20 μM compound for 48 h) is reported as 46.1 ± 4.7%.
With COc1ccc2ccc(-c3ccc(OC)c(OC)c3)[o+]c2c1 the viability at 20 µM ([1]; 20 μM compound for 48 h) was 48.7 ± 5.5%.
For COc1cc(-c2[o+]c3cc(O)cc(O)c3cc2O)cc(OC)c1O.[Cl-] [Malvidin, malvidin], the Cell survival ([1]; 20 μM compound for 48 h) is given as 51.5 ± 6.9%, the “photoprotective effect on the RPE cells” value (RPE cells [3]) is given as “contrary” and the “effectiveness for cell survival of the RPE cells” value (shortened to “effectiveness for cell survival”) (RPE cells [4]) is given as “ineffectiveness”.
In the case of COc1ccc(-c2ccc3ccc(O)cc3[o+]2)c(O)c1O [Compound 2, 2′,3′,7-trihydroxy-4′-methoxy-flavylium chloride], the viability at 20 µM ([1]; 20 μM compound for 48 h) is reported as 86.7 ± 2.3%.
For Oc1cc(O)c2ccc(-c3ccc(O)c(O)c3)[o+]c2c1 [Compound 7, 3′,4′,5,7-tetrahydroxy-flavylium chloride (luteolinidin)], the viability at 5 µM ([1]; 5 μM compound for 48 h) was 72 ± 4.4% and the viability at 20 µM ([1]; 20 μM compound for 48 h) was 93.6 ± 6.7%.
Work on Oc1ccc(-c2[o+]c3cc(O)c(O)c(O)c3cc2O)cc1O [Quercetagetinidin, quercetagetinidin] yielded a Cell survival ([1]; 20 μM compound for 48 h) of 54.3 ± 6.6%.
Oc1ccc2cc(O)c(-c3ccc(O)c(O)c3)[o+]c2c1 [Fisetinidin, fisetinidin] showed a Cell survival ([1]; 20 μM compound for 48 h) of 39.3 ± 3.2%.
With Oc1cc(O)c2cc(O)c(-c3ccc(O)c(O)c3)[o+]c2c1 [Cyanidin, cyanidin] the Cell survival ([1]; 5 μM compound for 48 h) was 56.4 ± 8.8%, the Cell survival ([1]; 20 μM compound for 48 h) was 92.9 ± 1.9% and the photoprotector effect ([1]; at 20 μM, in words) was “substantial photoprotector effect”. The “effectiveness of the photoprotection” value ([1]; at a lower concentration (5 μM), in words) was “substantially reduced”, the “photoprotective effect on the RPE cells” value (RPE cells [3]) was “photoprotective effect” and the “effectiveness for cell survival” value (RPE cells [4]) was “ineffectiveness”.
For Oc1cc(O)c2cc(O)c(-c3cc(O)c(O)c(O)c3)[o+]c2c1 [Delphinidin, delphinidin], the Cell survival ([1]; 5 μM compound for 48 h) is given as 40.5 ± 6.2%, the Cell survival ([1]; 20 μM compound for 48 h) is given as 57.8 ± 5.6% and the “photoprotective effect on the RPE cells” value (RPE cells [3]) is given as “photoprotective effect”. The “effectiveness for cell survival” value (RPE cells [4]) was “ineffectiveness”.
Oc1ccc(-c2ccc3c(O)cc(O)c(O)c3[o+]2)cc1O [Gossypetinidin, gossypetinidin] gave a Cell survival ([1]; 20 μM compound for 48 h) of 36.5 ± 14.4%.
COc1ccc(-c2ccc3ccc(OC)cc3[o+]2)c(O)c1 showed a viability at 20 µM ([1]; 20 μM compound for 48 h) of 39.2 ± 7.4%.
For COc1ccc(-c2ccc3ccc(O)cc3[o+]2)c(O)c1 [Compound 1, 2′,7-dihydroxy-4′-methoxy-flavylium chloride], the viability at 20 µM ([1]; 20 μM compound for 48 h) was 89.9 ± 4.9%.
guibourtinidin showed a Cell survival ([1]; 20 μM compound for 48 h) of 42.8 ± 6.9%.
In the case of COc1cc(-c2[o+]c3cc(O)cc(O)c3cc2O)cc(O)c1O [Petunidin, petunidin], the Cell survival ([1]; 20 μM compound for 48 h) is given as 67.2 ± 6.9% and the “effectiveness for cell survival” value (RPE cells [4]) is given as “ineffectiveness”.
